Data: PMC6429459, “The HslV Protease from Leishmania major and Its Activation by C-terminal HslU Peptides” (International Journal of Molecular Sciences, 2019)
Entries after “also recorded” stand apart in the source; their conditions may differ. Numbered stars: 1 amine (or outer) side, 2 acyl side, 3 side chain; on linkers, the order of the positions; unused ones are H or OH. * marks the point of attachment. AMC = Cc1cc(=O)oc2cc(N*)ccc12; Suc = O=C(CCC(=O)[*:2])[*:1]; Cbz = O=C(OCc1ccccc1)*

Legend:
recombinant LmHslV [1] = assay: LmHslV peptidase activation by HslU C-terminal peptides, substrate Z-EVNL-AMC (JMV4482); type: biochemical, Leishmania major; conditions: for Potency of LmHslV activation relative to LmC12-U2 / LmHslV activation relative to reference peptide 10 (LmC12-U2): LmHslV 75.2 nM, Figure 3; for LmHslV activation, Ala-scan, D-scan and truncations, relative to LmC12-U2: LmHslV 2 μg, 30 min at 37 °C, JMV4482 (Z-EVNL-AMC) 100 μM, Figure 4; for LmHslV activation relative to reference peptide 10 (LmC12-U2): initial velocity normalised to 10 = 100%
Method: (§1) Activity assay: The peptidase activity of recombinant LmHslV was assessed by measuring the fluorescence of AMC released after hydrolysis of the fluorogenic substrates Z-GGL-AMC or JMV4482 (Z-EVNL-AMC), 100 µM. LmHslV activation was obtained by addition of activating peptides (see type and concentration in the figure legends). Activity buffer: 25 mM Tris-HCl pH 8.0, 1 mM DTT, 0.5 mM EDTA and 5 mM MgCl2. Most of the experiments were performed in a final volume of 50 µL in black 96-well microplates (Fisher Scientific, Illkirch, France. Fluorescence was measured using a spectrofluorimeter (BIO-TEK Instrument, Inc., Winooski, VT, USA): filters 360/340 for excitation and 460/440 for emission.
Figure 3 Both peptides derived from the C-terminal end of either LmHslU1 or LmHslU2 and analogues from other microorganisms are able to support LmHslV activation. LmHslV (75,2nM) was incubated at 37 °C with the peptide substrate Z-EVNL-AMC (100 μM) in the presence of peptides 8–11 and 1–15 (500 μM). A scrambled version of LmC12-U2 (44) was also included. The fluorescence of the free AMC group, proportional to the activity of the sample, was measured at 2 min. intervals.
Figure 4 Sequence requirements for activation of LmHslV by C-terminal LmHslU2 peptides. (A) Alascan. Percentage of initial velocity relative to compound LmC12-U2. Fluorescence was measured for 30 min incubation at 37 °C of LmHslV (2 μg) with 100 μM JMV4482 (Z-EVNL-AMC) in the presence of 500 μM peptides. (B) D-scan. Percentage of initial velocity relative to compound LmC12-U2. Activity was measured as in (A). (C) Truncated peptides. Percentage of activity relative to compound LmC12-U2, measured as in (A).
Figure 5 Effect of conformational constraints on HslV activation by HslU C-terminal peptides. HslV activity was measured in the presence of various cyclic analogues of LmC12-U2 and LmC9-U2. Values are expressed as percentage of initial velocity relative to compound LmC12-U2.
Figure S3. Effect of LmC12-U2 dimerization. LmHslV has been incubated at 37°C for 30 min with […]
the substrate Z-EVNL-AMC (100µM). The fluorescence generated by the cleavage of the substrate was recorded at 5 min intervals. The dotted line represents the ratio at each time point between the fluorescence values obtained with the two peptides.
(also on this page, place not known: dimerization . ( 12), Di-C12 / C12 Fluorescence (arbitrary unit) Ratio)

LmHslV = assay: Degradation of fluorogenic substrates by LmC12-U2-activated LmHslV; type: biochemical, Leishmania major; conditions: LmHslV 75.2 nM, 37 °C, substrate 100 μM, activating peptide LmC12-U2 500 μM; Figure 2; in words
Method: as §1
Figure 2 Degradation of different fluorogenic substrates by LmHslV. LmHslV (75.2 nM) was incubated at 37 °C with different fluorogenic substrates (100 μM) in the presence of the activating peptide LmC12-U2 (500 μM). The fluorescence of the free AMC group, proportional to the activity of the sample, was measured at 2 min. intervals. With each substrate, no activity was measured in the absence of activating peptide: for the sake of clarity, only the negative control values obtained with the substrate ZGGL-AMC are shown.

[2] = Circular dichroism, α-helix content from θ at 222 nm; type: physicochemical; conditions: for Helicity%: 25 mM Tris-HCl pH 8.0, 20 °C, 100% helicity for θ = −36,000; for θmre at 222 nm: 25 mM Tris-HCl pH 8.0, around 200 μM peptide, 20 °C, 1 mm cuvette, 3 scans
Method: CD spectra (Figure S2) were recorded on a JASCO J-815 spectropolarimeter from 190 to 260 nm (data pitch of 0.1 nm, continuous scanning mode, 200 nm/min, 3 scans) at 20 °C, using a 1 mm path length cuvette. Baseline was corrected by subtracting the background from the sample spectrum.
Peptides were solubilised in 50 mM Tris-HCl, pH 8.0 buffer at an estimated concentration of 400 μM according to their apparent molecular mass (i.e. M + xTFA with x = number of basic groups). The solutions were then diluted twice (25 mM Tris and around 200 μM peptides final concentrations) with: […]

recombinant LmHslV [3] = assay: LmHslV peptidase activation by HslU C-terminal peptides, substrate Z-GGL-AMC; type: biochemical, Leishmania major; conditions: in words; for Activation of LmHslV (AMC fluorescence liberated per minute): LmHslV 300 nM, 37 °C, Z-GGL-AMC 100 μM, peptide 2.2 mM, read every 15 min for 2 h, mean of two replicates, Figure 1
Method: as §1
Figure 1 Activation of LmHslV by HslU-derived peptides. (A) Activation of LmHslV by peptides corresponding to the 8 C-terminal residues of LmHslU1 (compound 1) and U2 (compound 4). LmHslV (300 nM) was incubated at 37 °C with the peptide substrate Z-GGL-AMC (100μM) in the presence of vehicle (left) or 2.2 mM of the peptides H-LmC8-U1 or Ac-LmC8-U2. The fluorescence of the free AMC group liberated by hydrolysis of the substrate, which is proportional to the proteolytic activity of the sample, was measured every 15 min for 2 h. The activity is calculated as fluorescence units liberated by the minute during the linear period of the assay. The values are the mean of two experimental replicates for a representative experiment; errors bars represent deviation from the mean of the values. (B) LmHslV can also be activated by octapeptides derived from the C-terminus of […] from E. coli. Assays were performed as in (A), using compounds 4 (Ac-LmC8-U2), 6 (H-EcC8-U) and 7 (Ac-EcC8-U).

[4] = 37 °C, Z-EVNL-AMC 100 μM, peptide 500 μM
[5] = substrate Z-EVNL-AMC, Figure 5, in words
[6] = 37 °C, Z-EVNL-AMC 100 μM, peptide 500 μM, in words

H-arg-O2Oc-Phe-Ile-Lys-Gln-Tyr-Asp-Leu-Lys-Lys-Tyr-Ile-Ile-OH [Compound 14]
Potency of LmHslV activation relative to LmC12-U2 (recombinant LmHslV [1]; [4]): 1.5 fold

H-arg-O2Oc-Leu-Gln-Lys-c[Asp-Val-Asn-Leu-Orn]-Lys-Tyr-Leu-Leu-OH (sidechain bridge or staple) [Compound 41]
LmHslV activation by cyclic analogues relative to reference peptide 10 (recombinant LmHslV [1]; [5]): activity decreased

H-arg-O2Oc-Leu-Gln-Lys-c[Asp-Val-Asn-Leu-lys]-Lys-Tyr-Leu-Leu-OH (sidechain bridge or staple) [Compound 39]
LmHslV activation by cyclic analogues relative to reference peptide 10 (recombinant LmHslV [1]; [5]): much more potent than the linear compound 24

H-arg-O2Oc-Leu-Met-Asn-Asn-Ile-Asp-Leu-Ala-Lys-Tyr-Ile-Leu-OH [Compound 13]
Potency of LmHslV activation relative to LmC12-U2 (recombinant LmHslV [1]; [4]): twice

H-arg-O2Oc-Leu-Gln-Lys-Asn-Val-Asn-leu-Ala-Lys-Tyr-Leu-Leu-OH [Compound 23]
LmHslV activation, Ala-scan, D-scan and truncations, relative to LmC12-U2 (recombinant LmHslV [1]; peptide 500 μM, in words): no activity

Cbz-Gly-Gly-Leu-{AMC}
Degradation of fluorogenic substrate by activated LmHslV (LmHslV): degraded by peptide-activated LmHslV

H-arg-O2Oc-Leu-Gln-Lys-Asn-Val-Asn-Leu-Ala-Lys-Phe-Leu-Leu-OH [Compound 11]
LmHslV activation relative to reference peptide 10 (LmC12-U2) (recombinant LmHslV [1]; [6]): decreased activity; also recorded: reverse effect

H-arg-O2OC-Asn-Val-Asn-Leu-Ala-Lys-Tyr-Leu-Leu-OH [Compound 29]
Helicity% ([2]; 0% TFE): 5% | θmre at 222 nm ([2]; 0% TFE): −1711 deg.cm^2.dmol^−1 | Helicity% ([2]; 25% TFE): 11% | θmre at 222 nm ([2]; 25% TFE): −4130 deg.cm^2.dmol^−1 | Helicity% ([2]; 50% TFE): 13% | θmre at 222 nm ([2]; 50% TFE): −4733 deg.cm^2.dmol^−1

Ac-EDLSRFIL-OH [Compound 7]
Activation of LmHslV (AMC fluorescence liberated per minute) (recombinant LmHslV [3]): also found to activate LmHslV

H-arg-O2Oc-Leu-Gln-Lys-c[Asp-Val-Asn-Leu-Dap]-Lys-Tyr-Leu-Leu-OH (sidechain bridge or staple) [Compound 42]
LmHslV activation by cyclic analogues relative to reference peptide 10 (recombinant LmHslV [1]; [5]): almost half as active as the reference peptide

H-arg-O2Oc-Met-Val-Lys-Lys-Val-Asp-Ile-Lys-Lys-Tyr-Ile-Leu-OH [Compound 9]
LmHslV activation relative to reference peptide 10 (LmC12-U2) (recombinant LmHslV [1]; [6]): increase in activity; also recorded: large increase in potency

H-arg-O2Oc-Leu-Gln-Lys-c[asp-Val-Asn-Leu-lys]-Lys-Tyr-Leu-Leu-OH (sidechain bridge or staple) [Compound 40]
Relative potency: percentage of initial velocity relative to LmC12-U2 (recombinant LmHslV [1]; cyclic analogues, substrate Z-EVNL-AMC, Figure 5): 55%

H-VDIKKFIL-OH [Compound 1]
Activation of LmHslV (AMC fluorescence liberated per minute) (recombinant LmHslV [3]): able to activate the protease

Ac-VNLAKYLL-OH [Compound 4]
Activation of LmHslV (AMC fluorescence liberated per minute) (recombinant LmHslV [3]): robust activation

H-EDLSRFIL-OH [Compound 6]
Activation of LmHslV (AMC fluorescence liberated per minute) (recombinant LmHslV [3]): also found to activate LmHslV

H-arg-O2Oc-Leu-Gln-Lys-Asn-Val-Asn-Leu-ala-Lys-Tyr-Leu-Leu-OH [Compound 24]
LmHslV activation, Ala-scan, D-scan and truncations, relative to LmC12-U2 (recombinant LmHslV [1]; peptide 500 μM, in words): residual activity | Decrease in activity relative to LmC12-U2 (recombinant LmHslV [1]; Z-EVNL-AMC 100 μM, peptide 500 μM, D-scan): 80%

H-arg-O2Oc-c[Asp-Val-Asn-Leu-Lys]-Lys-Tyr-Leu-Leu-OH (sidechain bridge or staple) [Compound 43]
Helicity% ([2]; 0% TFE): 6% | θmre at 222 nm ([2]; 0% TFE): −2225 deg.cm^2.dmol^−1 | Helicity% ([2]; 25% TFE): 14% | θmre at 222 nm ([2]; 25% TFE): −5026 deg.cm^2.dmol^−1 | Helicity% ([2]; 50% TFE): 14% | θmre at 222 nm ([2]; 50% TFE): −5140 deg.cm^2.dmol^−1 | LmHslV activation by cyclic analogues relative to reference peptide 10 (recombinant LmHslV [1]; [5]): almost as active as the reference peptide 10; also recorded: did not reduce the activity compared to LmC12-U2 (10)

H-arg-O2Oc-Leu-Gln-Lys-c[Asp-Val-Asn-Leu-Lys]-Lys-Tyr-Leu-Leu-OH (sidechain bridge or staple) [Compound 37]
Helicity% ([2]; 0% TFE): 5% | θmre at 222 nm ([2]; 0% TFE): −1626 deg.cm^2.dmol^−1 | Helicity% ([2]; 25% TFE): 17% | θmre at 222 nm ([2]; 25% TFE): −6143 deg.cm^2.dmol^−1 | θmre at 222 nm ([2]; 50% TFE): −7628 deg.cm^2.dmol^−1 | LmHslV activation by cyclic analogues relative to reference peptide 10 (recombinant LmHslV [1]; [5]): the more potent cyclic analogue

1,2,3-Triazole-1,4 = [CH2CH2CO-(O2Oc)3-Leu-Gln-Lys-Asn-Val-Asn-Leu-Ala-Lys-Tyr-Leu-Leu-OH]2 [Compound 12]
HslV activity with dimer relative to monomer 10 (recombinant LmHslV [1]; LmHslV, 37 °C, 30 min, peptide 550 μM, Z-EVNL-AMC 100 μM, Figure S3, in words): about twice that reached with the monomer

H-arg-O2Oc-Leu-Val-Ala-Asp-Glu-Asp-Leu-Ser-Arg-Phe-Ile-Leu-OH [Compound 15]
LmHslV activation relative to reference peptide 10 (LmC12-U2) (recombinant LmHslV [1]; [6]): as potent as LmC12-U2

Suc-LLVY-{AMC}
Degradation of fluorogenic substrate by activated LmHslV (LmHslV): degraded by peptide-activated LmHslV

H-arg-O2Oc-Leu-Gln-Lys-Asn-Val-Asn-Leu-Ala-Lys-Tyr-Leu-Leu-OH [Compound 10]
Activation of LmHslV compared with LmC8-U2 peptide 4 (recombinant LmHslV [3]; substrate Z-GGL-AMC, preliminary experiments): much more efficiently than the LmC8-U2 peptide 4 | LmHslV activation, Ala-scan, D-scan and truncations, relative to LmC12-U2 (recombinant LmHslV [1]; peptide 500 μM, in words): by far the most potent activator

H-arg-O2Oc-Asn-Leu-Tyr-Lys-Leu-Val-Gln-Leu-Leu-Asn-Lys-Ala-OH [Compound 44]
LmHslV activation relative to reference peptide 10 (LmC12-U2) (recombinant LmHslV [1]; [6]): no activity
